Laboratory results: patent publication US10487084B2, “Toll-like receptor 7 (TLR7) agonists having a heterobiaryl moiety, conjugates thereof, and methods and uses therefor” (BRISTOL-MYERS SQUIBB COMPANY, priority 2017, dated 2019)

Tests used:
human TLR7 = human TLR7 (Homo sapiens (Human), UniProt Q9NYK1); assay: HEK-Blue TLR7 reporter assay (TLR7 agonism); type: cell-based; settings: HEK-Blue TLR7 cells, SEAP reporter, 18 h treatment
Experimental: This example describes a method for assaying TLR7 agonist activity of the compounds disclosed in this specification.
HEK-Blue™ TLR7 cells were added to each well of a 384-well tissue-culture plate (15,000 cells per well) and incubated 16-18 h at 37° C., 5% CO2. Compounds (100 nl) were dispensed into wells containing the HEK-Blue™ TLR cells and the treated cells were incubated at 37° C., 5% CO2. After 18 h treatment ten microliters of freshly-prepared Quanti-Blue™ reagent (Invivogen) was added to each well, incubated for 30 min (37° C., 5% CO2) and SEAP levels measured using an Envision plate reader (OD=620 nm).

interleukin 6 (IL-6) = assay: Interleukin 6 induction assay in human whole blood; type: cell-based; settings: 37° C. for 20 h, AlphaLISA
Experimental: This example describes a method for assaying interleukin 6 induction by compounds disclosed in this specification.
Compounds diluted in DMSO were transferred to individual wells of a Matrix Tech-nologies clear, V-bottom 384-well plate using ECHO acoustic liquid handling technology (25 nL per well). Human whole-blood samples (25 uL) were added to each well using a CyBio FeliX liquid handling instrument. The plate was shaken on a plate shaker for three min before incubating the reaction mixtures at 37° C. for 20 h. Basel RPMI 1640 medium (supplemented with L-glutamine) was then added to each well (25 uL per well) prior to liberating plasma from each sample by centrifugation (450×g, 5 min, ambient temperature). Treated plasma samples (3 uL) were subsequently transferred to individual wells of a white, shallow, 384-well ProxiPlate (Perkin Elmer) using the FeliX liquid handling instrument and their interleukin 6 levels were measured using AlphaLISA technology as described by the manufacturer, PerkinElmer. Data analyses software was used to determine compound EC50 values where the baseline was established using average DMSO values and 100% induction established using reference compound values at the highest concentration tested. EC50's can be determined with software such as Graphpad Prism™.

IFN-α = settings: fold lower potency vs corresponding purine-8-one compound; cited from earlier work

human TLR7, sequence (Q9NYK1 27-1049): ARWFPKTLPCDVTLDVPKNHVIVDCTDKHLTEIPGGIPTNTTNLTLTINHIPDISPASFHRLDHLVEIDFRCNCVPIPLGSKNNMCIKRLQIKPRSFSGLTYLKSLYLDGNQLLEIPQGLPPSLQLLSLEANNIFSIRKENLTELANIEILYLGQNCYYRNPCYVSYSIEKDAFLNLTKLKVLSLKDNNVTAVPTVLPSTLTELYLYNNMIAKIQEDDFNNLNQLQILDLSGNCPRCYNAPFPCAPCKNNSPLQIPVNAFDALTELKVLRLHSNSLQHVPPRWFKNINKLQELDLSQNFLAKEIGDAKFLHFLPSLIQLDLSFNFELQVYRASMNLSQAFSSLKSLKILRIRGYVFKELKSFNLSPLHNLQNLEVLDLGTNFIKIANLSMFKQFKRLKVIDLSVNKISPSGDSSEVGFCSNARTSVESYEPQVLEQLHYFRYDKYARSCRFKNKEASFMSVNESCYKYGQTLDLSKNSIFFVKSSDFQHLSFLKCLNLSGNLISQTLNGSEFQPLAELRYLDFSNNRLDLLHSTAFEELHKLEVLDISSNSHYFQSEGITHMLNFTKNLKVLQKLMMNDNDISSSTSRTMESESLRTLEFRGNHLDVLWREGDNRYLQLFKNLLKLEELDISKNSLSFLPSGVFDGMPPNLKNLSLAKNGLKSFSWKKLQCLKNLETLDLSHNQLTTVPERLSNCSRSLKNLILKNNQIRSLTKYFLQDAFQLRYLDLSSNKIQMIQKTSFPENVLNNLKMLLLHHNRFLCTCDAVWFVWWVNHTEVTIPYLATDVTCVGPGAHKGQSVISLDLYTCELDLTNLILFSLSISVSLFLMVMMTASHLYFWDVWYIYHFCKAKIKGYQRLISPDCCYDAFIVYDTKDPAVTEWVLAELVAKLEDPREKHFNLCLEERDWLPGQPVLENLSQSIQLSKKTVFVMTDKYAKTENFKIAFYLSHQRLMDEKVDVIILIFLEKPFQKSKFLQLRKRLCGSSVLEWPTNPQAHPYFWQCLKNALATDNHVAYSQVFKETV

Structure (SMILES) | EC50 (human TLR7) | EC50 (interleukin 6 (IL-6)) | potency less than that of the corresponding purine-8-one compound, as measured by IFN-α induction (IFN-α)
CCCCOc1nc(N)c2nc(O)n(Cc3ccccc3)c2n1 [Compound B, reference compound] | 474 nM | – | –
CCCCOc1nc(N)c2nc(O)n(Cc3ccc(-c4cnn(CCO)c4)cc3)c2n1 [Ia-01] | 16 nM | 108 nM | –
CCCCOc1nc(N)c2nc(O)n(Cc3ccc(-c4cnn(C5CNC5)c4)cc3)c2n1 [Ia-03] | 26 nM | 15 nM | –
CCCCOc1nc(N)c2nc(O)n(Cc3ccc(-c4cnn(CCNC5CCC5)c4)cc3)c2n1 [Ia-04] | 7.5 nM | 6.9 nM | –
CCCCOc1nc(N)c2nc(O)n(Cc3ccc(-c4cnn(CC(=O)NC5CNC5)c4)cc3)c2n1 [Ia-06] | 24 nM | 88.7 nM | –
CCCCOc1nc(N)c2nc(O)n(Cc3ccc(-c4csc(CN)c4)cc3)c2n1 [Ib-01] | – | 106 nM | –
CCCCOc1nc(N)c2nc(O)n(Cc3ccc(-c4csc(CN)c4)nc3)c2n1 [Ib-02] | – | 7.55 nM | –
CCCCOc1nc(N)c2nc(O)n(Cc3ccc(-c4nc(CO)co4)cc3)c2n1 [Ic-01] | 99 nM | 365 nM | –
CCCCOc1nc(N)c2c(n1)N(Cc1cccc(CN3CCCC3)c1)CC(=O)N2 [Vesatolimod, vesatolimod] | – | – | 100 ×
